Holding throughout (assay type): cell-based
The target of one assay is T1, THIK-1-Y273W (Homo sapiens, UniProt Q9HB14, Y273W).
T1 construct: expressed in transfected cells; host or cells: Xenopus oocytes (mRNA injection)
T1 sequence (Q9HB14 1-408 Y273W): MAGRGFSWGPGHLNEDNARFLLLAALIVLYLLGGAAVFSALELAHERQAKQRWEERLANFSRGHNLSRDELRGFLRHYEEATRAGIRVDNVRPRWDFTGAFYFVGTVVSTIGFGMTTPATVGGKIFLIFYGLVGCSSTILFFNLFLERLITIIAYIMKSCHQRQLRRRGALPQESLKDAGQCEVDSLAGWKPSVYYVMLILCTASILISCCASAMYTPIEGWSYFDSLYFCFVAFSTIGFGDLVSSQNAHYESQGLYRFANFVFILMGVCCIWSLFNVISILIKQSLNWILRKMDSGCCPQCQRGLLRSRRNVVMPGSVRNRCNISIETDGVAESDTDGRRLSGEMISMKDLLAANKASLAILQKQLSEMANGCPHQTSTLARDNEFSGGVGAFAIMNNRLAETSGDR
Kind of assay: Inside-out excised patch recordings, oocytes, THIK-1 Y273W mutant. An excerpt: (§1) Human K2P13.1 THIK-1 (GenBank accession number: NM_022054) and human K2P12.1 THIK-2 (NM_022055.1) were used in this study. For functional expression studies, the respective K^+ channel subtype coding sequences were subcloned into the oocyte expression vector pSGEM or the dual-purpose expression vector pFAW[41] and verified by sequencing. All mutant channels were obtained by site-directed mutagenesis and verified by sequencing. To increase surface expression and macroscopic currents, measurements of THIK-2 channels used a mutated ER retention motif, (R11A R12A R14A R15A R16A; THIK-2*)[20]. Vector DNA was linearized with NheI or MluI, and mRNA was synthesized in vitro using the SP6 or T7 AmpliCap Max High Yield Message Maker Kit (Cellscript, USA) or HiScribe T7 ARCA mRNA Kit (New England Biolabs).
Two-electrode voltage–clamp (TEVC) studies were performed in Xenopus oocytes. All animal use conformed to the Guide for the Care and Use of Laboratory Animals (NIH Publication 85–23), and all experiments using Xenopus toads were approved by the local ethics panels. Oocytes were stored at 17 °C in ND96 recording solution composed of (in mM): 96 NaCl, 2 KCl, 1.8 CaCl2, 1 MgCl2, 5 HEPES (pH 7.5 adjusted with NaOH and HCl), supplemented with Na-pyruvate (275 mg L^–1), theophylline (90 mg L^–1) and gentamicin (50 mg L^–1). Oocytes were injected with 1 ng mRNA for WT or mutant channels, and were incubated for 24–48 h at 17 °C. Two-electrode voltage clamp recordings were then performed as previously described[42],[43]. For macroscopic patch–clamp measurements, oocytes were obtained as described above incubated at 17 °C in a solution containing (mM): 54 NaCl, 30 KCl, 2.4 NaHCO3, 0.82 MgSO4 ×7 H2O, 0.41 CaCl2, 0.33 Ca(NO3)2 ×4 H2O and 7.5 TRIS (pH 7.4 adjusted with NaOH and HCl) for 1–4 days before use. Excised patch recordings in inside-out configuration conditions were performed at room temperature. Patch pipettes were made from thick-walled borosilicate glass GB 200TF-8P (Science Products), had resistances of 0.2–0.5 MΩ (tip diameter, 10–25 µm) and filled with a pipette solution (in mM): 120 KCl, 10 HEPES and 3.6 CaCl2 (pH 7.4 adjusted with KOH and HCl). […] Currents were recorded with an EPC10 amplifier (HEKA Electronics) and sampled at 10 kHz or higher, with filtering set to 3 kHz (–3 dB) or higher, as appropriate for sampling rate. For measurements of GPCR activation, whole-cell currents were recorded for THIK-1 in transiently transfected HEK-293 cells. […] Single-channel currents were recorded with an Axopatch 200B amplifier through a Digidata 1440A digitizer (Molecular Devices). Data were filtered at 2 kHz and recorded at a 200-kHz sampling rate with the program Clampex (Molecular Devices). […]

Another assay deals with T2, THIK-1 G331x (Homo sapiens, UniProt Q9HB14).
T2 construct: expressed in transfected cells; host or cells: Xenopus oocytes (mRNA injection)
T2 sequence (Q9HB14 1-330 limits assumed): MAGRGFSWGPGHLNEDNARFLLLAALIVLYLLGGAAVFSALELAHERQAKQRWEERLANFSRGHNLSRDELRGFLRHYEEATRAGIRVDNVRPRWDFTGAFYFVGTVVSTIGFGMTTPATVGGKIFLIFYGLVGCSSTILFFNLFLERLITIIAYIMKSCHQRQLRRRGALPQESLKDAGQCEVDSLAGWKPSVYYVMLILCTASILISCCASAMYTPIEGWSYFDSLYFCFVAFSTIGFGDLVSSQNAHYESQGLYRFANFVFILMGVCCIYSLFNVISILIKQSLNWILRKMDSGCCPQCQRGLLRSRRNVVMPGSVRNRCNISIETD
In words: Inside-out excised patch recordings, oocytes, THIK-1 truncated at CASP8 cleavage site (G331x).
Excerpt: as §1
Two-electrode voltage–clamp (TEVC) studies were performed in Xenopus oocytes. All animal use conformed to the Guide for the Care and Use of Laboratory Animals (NIH Publication 85–23), and all experiments using Xenopus toads were approved by the local ethics panels. Oocytes were stored at 17 °C in ND96 recording solution composed of (in mM): 96 NaCl, 2 KCl, 1.8 CaCl2, 1 MgCl2, 5 HEPES (pH 7.5 adjusted with NaOH and HCl), supplemented with Na-pyruvate (275 mg L^–1), theophylline (90 mg L^–1) and gentamicin (50 mg L^–1). Oocytes were injected with 1 ng mRNA for WT or mutant channels, and were incubated for 24–48 h at 17 °C. Two-electrode voltage clamp recordings were then performed as previously described[42],[43]. For macroscopic patch–clamp measurements, oocytes were obtained as described above incubated at 17 °C in a solution containing (mM): 54 NaCl, 30 KCl, 2.4 NaHCO3, 0.82 MgSO4 ×7 H2O, 0.41 CaCl2, 0.33 Ca(NO3)2 ×4 H2O and 7.5 TRIS (pH 7.4 adjusted with NaOH and HCl) for 1–4 days before use. Excised patch recordings in inside-out configuration conditions were performed at room temperature. Patch pipettes were made from thick-walled borosilicate glass GB 200TF-8P (Science Products), had resistances of 0.2–0.5 MΩ (tip diameter, 10–25 µm) and filled with a pipette solution (in mM): 120 KCl, 10 HEPES and 3.6 CaCl2 (pH 7.4 adjusted with KOH and HCl). Intracellular bath solutions and compounds were applied to the cytoplasmic side of excised patches for the various K^+ channels through a gravity flow multi-barrel pipette system. The intracellular solution had the following composition (in mM): 120 KCl, 10 HEPES, 2 EGTA and 1 pyrophosphate (pH adjusted with KOH and HCl). Currents were recorded with an EPC10 amplifier (HEKA Electronics) and sampled at 10 kHz or higher, with filtering set to 3 kHz (–3 dB) or higher, as appropriate for sampling rate. For measurements of GPCR activation, whole-cell currents were recorded for THIK-1 in transiently transfected HEK-293 cells. Cells were stimulated by a ramp protocol between −100 and +60 mV (holding potential, −80 mV). The pipette solution was composed of (in mM): 140 KCl, 2 MgCl2, 1 CaCl2, 2.5 EGTA and 10 HEPES (pH 7.3 adjusted with KOH and HCl). The extracellular bath solution had the following composition (in mM): 135 NaCl, 5 KCl, 2 MgCl2, 2 CaCl2, 10 glucose and 10 HEPES pH (pH 7.3 adjusted with NaOH and HCl). Oxotremorine M (Oxo-M) was added to extracellular bath solution to obtain the final concentration. Single-channel currents were recorded with an Axopatch 200B amplifier through a Digidata 1440A digitizer (Molecular Devices). Data were filtered at 2 kHz and recorded at a 200-kHz sampling rate with the program Clampex (Molecular Devices). Pipette solution and bath solution for cell-attached recordings contained (in mM): 140 KCl, 2 MgCl2, 1 CaCl2 and 10 HEPES (pH 7.4 adjusted with KOH and HCl). For inside-out recordings, the bath solution contained (in mM): 140 KCl, 2 MgCl2, 1 CaCl2 and 10 HEPES (pH 7.2 adjusted with KOH and HCl). All experiments were conducted at room temperature. […]

The next assay has as its target T3, THIK-1 F142A (Homo sapiens, UniProt Q9HB14, F142A).
T3 construct: expressed in transfected cells; host or cells: Xenopus oocytes (mRNA injection)
Kind of assay: Inside-out excised patch recordings, oocytes, THIK-1 F142A mutant. The conditions noted are these: read-out: TPenA IC50. The text has this:
Supplement 41594_2025_1497_MOESM2_ESM.xlsx, sheet "ExtData_Fig_S2c" | column: Normalized currents

Several values for one entry are separate records, joined by “and”; a condition that tells them apart may be missing. Equal values may be shown once. Read-outs that look alike come from different tables or passages of the source.

T3 sequence (Q9HB14 whole entry F142A): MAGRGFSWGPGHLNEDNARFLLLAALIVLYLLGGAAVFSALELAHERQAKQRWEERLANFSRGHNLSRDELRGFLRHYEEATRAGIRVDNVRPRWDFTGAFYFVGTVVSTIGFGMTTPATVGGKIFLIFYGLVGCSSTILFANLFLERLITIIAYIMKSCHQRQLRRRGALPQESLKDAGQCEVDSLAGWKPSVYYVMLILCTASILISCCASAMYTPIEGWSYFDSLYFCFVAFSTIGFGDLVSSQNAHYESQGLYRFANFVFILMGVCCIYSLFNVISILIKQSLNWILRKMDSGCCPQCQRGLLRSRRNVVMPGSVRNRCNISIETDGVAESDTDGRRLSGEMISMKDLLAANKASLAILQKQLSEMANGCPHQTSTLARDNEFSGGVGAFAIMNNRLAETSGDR

As usually defined, the IC50 is the point on the concentration scale where inhibition reaches its midpoint. Turning to `CCCCC[N+](CCCCC)(CCCCC)CCCCC` [TPenA, tetrapentylammonium], the “τ of 1 mM TPenA block” value at THIK-1-Y273W (individual recordings) was 13.500 s and 9.700 s and 8.400 s and 10.003 s and 8.350 s and 4.860 s and 3.160 s and 2.380 s and 2.990 s and 4.490 s and 10.150 s and 2.500 s and 2.400 s and 9.800 s and 5.700 s and 4.500 s and 4.080 s; on THIK-1-Y273W (mean), 6.29 s. The “τ of 1 mM TPenA release” value on THIK-1-Y273W (individual recordings) was 20.400 s and 14.700 s and 10.800 s and 14.800 s and 23.260 s and 14.350 s and 14.990 s and 14.820 s and 16.280 s and 20.350 s and 17.660 s; at THIK-1-Y273W (mean), 16.58 s. Moreover, the Normalized currents on THIK-1 G331x (0.1 µM TPenA) amounted to 1.00; at THIK-1 G331x (1 µM TPenA), 1.00; on THIK-1 G331x (10 µM TPenA), 0.89; on THIK-1 G331x (100 µM TPenA), 0.40; on THIK-1 G331x (1000 µM TPenA), 0.09; at THIK-1 G331x (2000 µM TPenA), 0.05. The IC50 at THIK-1 F142A (individual recordings) was 239 µM and 187 µM and 498 µM and 367 µM; at THIK-1 F142A (mean), 323 µM.

The record behind these values is article PMC12263422, “Cryo-EM structure of the human THIK-1 K2P K^+ channel reveals a lower Y gate regulated by lipids and anesthetics” (Nature Structural & Molecular Biology, 2025).
